Tested on: not given
Test: not given
Conditions: not given
For `CC(C)Oc1nn(-c2cccc(Oc3ccccc3)c2)c(=O)o1` [Example 35, 3-(3-Phenoxyphenyl)-5-isopropoxy-1,3,4-oxadiazol-2-one], the melting point was 58 °C.

Target: T1, hormone-sensitive lipase HSL (Rattus norvegicus, UniProt P15304)
T1 construct: Isolated rat fat cells are obtained from epididymal fatty tissue from untreated male rats; from tissue; host or cells: fat cells from epididymal fatty tissue of male Wistar rats
T1 sequence (P15304 301-1068 limits assumed): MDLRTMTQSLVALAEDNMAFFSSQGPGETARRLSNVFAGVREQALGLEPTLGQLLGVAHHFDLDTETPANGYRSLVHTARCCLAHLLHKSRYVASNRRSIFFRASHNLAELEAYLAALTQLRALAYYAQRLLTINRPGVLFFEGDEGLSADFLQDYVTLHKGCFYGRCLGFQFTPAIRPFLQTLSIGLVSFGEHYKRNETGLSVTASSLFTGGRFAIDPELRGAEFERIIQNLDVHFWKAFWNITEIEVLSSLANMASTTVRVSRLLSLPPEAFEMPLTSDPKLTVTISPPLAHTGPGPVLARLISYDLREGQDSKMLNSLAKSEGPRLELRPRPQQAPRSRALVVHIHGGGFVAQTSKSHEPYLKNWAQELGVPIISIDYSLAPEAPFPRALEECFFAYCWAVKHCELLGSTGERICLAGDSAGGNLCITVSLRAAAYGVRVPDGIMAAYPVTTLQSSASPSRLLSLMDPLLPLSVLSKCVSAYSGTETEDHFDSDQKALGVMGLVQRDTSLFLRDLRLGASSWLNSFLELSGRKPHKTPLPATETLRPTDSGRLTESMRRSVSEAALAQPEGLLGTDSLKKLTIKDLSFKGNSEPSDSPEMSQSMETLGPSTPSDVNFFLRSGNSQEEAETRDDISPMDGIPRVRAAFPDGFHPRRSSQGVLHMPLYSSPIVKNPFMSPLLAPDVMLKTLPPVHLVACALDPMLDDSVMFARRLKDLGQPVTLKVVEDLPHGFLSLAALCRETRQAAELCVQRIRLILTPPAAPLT
Test: HSL enzyme test system ([3H]trioleoylglycerol hydrolysis)
Type: biochemical
Conditions: partially purified HSL from rat fat cells; [3H]trioleoylglycerol substrate; 37° C., 30 min
Excerpt: The activity of the compounds of the formula 1 according to the invention was examined using the following enzyme test system:
Isolated rat fat cells are obtained from epididymal fatty tissue from untreated male rats (Wistar, 220-250 g) by collagenase treatment according to published processes (e.g. S. Nilsson et al., Anal. Biochem. 158, 1986, 399-407; G. Fredrikson et al., J. Biol. Chem. 256, 1981, 6311-6320; H. Tornquist et al., J. Biol. Chem. 251, 1976, 813-819). The fat cells from 10 rats are washed three times by flotation with 50 ml each of homogenization buffer ([…] tris/HCI, pH 7.4, 0.25 M sucrose, 1 mM EDTA, 1 mM DTT, 10 μg/ml of leupeptin, 10 μg/ml of antipain, 20 μg/ml of pepstatin) and finally taken up in 10 ml of homogenization buffer. The fat cells are homogenized in a Teflon-in-glass homogenizer (Braun-Melsungen) by 10 strokes at 1500 rpm and 15° C. The homogenizate is centrifuged (Sorvall SM24 tubes, 5000 rpm, 10 min, 4° C). The bottom layer between the overlying fatty layer and the pellet is removed and the centrifugation is repeated. The bottom layer resulting from this is centrifuged again (Sorvall SM24 tubes, 20,000 rpm, 45 min, 4° C). […] After incubation for 60 min at 4° C. (shake at intervals of 15 min), the batch is centrifuged (Sorvall SM24 tubes, 3000 rpm, 10 min, 4° C.). The supernatant is brought to pH 5.2 by addition of glacial acetic acid and incubated at 4° C. for 30 min. The precipitates are collected by centrifugation (Sorvall SS34, 12,000 rpm, 10 min, 4° C.) and suspended in 2.5 ml of 20 mM tris/HCl, pH 7.0, 1 mM EDTA, 65 mM NaCl, 13% sucrose, 1 mM DTT, 10 μg/ml of leupeptin/pepstatin/antipain. The suspension is dialyzed overnight at 4° C. against 25 mM tris/HCl, pH 7.4, 50% glycerol, 1 mM DTT, 10 μg/ml of leupeptin, pepstatin, antipain and then applied to a hydroxylapatite column (0.1 g per 1 ml of suspension, equilibrated with 10 mM potassium phosphate, pH 7.0, 30% glycerol, 1 mM DTT). The column is washed with four volumes of equilibration buffer at a flow rate of 20 to 30 ml/h. The HSL is eluted with a volume of equilibration buffer which contains 0.5 M potassium phosphate, then dialyzed (see above) and concentrated 5 to 10 times by ultrafiltration (Amicon Diaflo PM 10 filter) at 4° C. The partially purified HSL can be stored at −70° C. for 4 to 6 weeks.
For the preparation of the substrate, 25-50 μCi of [^3H]trioleoylglycerol (in toluene), 6.8 μMol of unlabeled trioleoylglycerol and 0.6 mg of phospholipids (phosphatidylcholine/phosphatidylinositol 3:1 w/v) are mixed, dried over N2 and then taken up in 2 ml of 0.1 M KPi (pH 7.0) by ultrasonic treatment (Branson 250, microtip, setting 1-2, 2×1 min at a 1 min interval). After addition of 1 ml KPi and fresh ultrasonic treatment (4×30 sec on ice at 30 sec intervals), 1 ml of 20% BSA (in KPi) is added (final concentration of trioleoylglycerol 1.7 mM). For the reaction, 100 μl of substrate solution are pipetted into 100 μl of HSL solution (HSL prepared as above, diluted in 20 mM KPi, pH 7.0, 1 mM EDTA, 1 mM DTT, 0.02% BSA, 20 μg/ml of pepstatin, 10 μg/ml of leupeptin) and incubated at 37° C. for 30 min. After addition of 3.25 ml of methanol/chloroform/heptane (10:9:7) and of 1.05 ml of 0.1 M K2CO3, 0.1 M boric acid (pH 10.5), the batch is well mixed and finally centrifuged (800×g, 20 min). After phase separation, one equivalent of the upper phase (1 ml) is taken and the radioactivity is determined by liquid scintillation measurement.
Substances are customarily tested in four independent batches. The inhibition of the enzymatic activity of the HSL by a test substance is determined by comparison with an uninhibited control reaction. The IC50 value is calculated by means of an inhibition curve using at least 10 concentrations of the test substance. For the analysis of the data, the software package GRAPHIT, Elsevier-BIOSOFT is used.
Compound `CCOc1nn(-c2ccc(OC(F)(F)F)cc2)c(=O)o1` [Example 11, 3-(4-Trifluoromethoxyphenyl)-5-ethoxy-1,3,4-oxadiazol-2-one] has an IC50 of 10 µM.
For `COc1nn(-c2ccc(Oc3ccccc3)cc2)c(=O)o1` [Example 36, 3-(4-Phenoxyphenyl)-5-methoxy-1,3,4-oxadiazol-2-one], the IC50 was 2 µM.
Compound `COc1nn(-c2ccc(-c3ccccc3)cc2)c(=O)o1` [Example 39, 3-(4-Phenylphenyl)-5-methoxy-1,3,4-oxadiazol-2-one] has an IC50 of 60 µM.
`CCOc1nn(-c2ccc(S(=O)(=O)N3CCOCC3)cc2)c(=O)o1` [Example 8, 3-(4-Morpholinosulfonylphenyl)-5-ethoxy-1,3,4-oxadiazol-2-one] gave an IC50 of 15 µM.
For `COc1nn(-c2cccc(OCc3ccccc3)c2)c(=O)o1` [Example 17, 3-(3-Benzyloxyphenyl)-5-methoxy-1,3,4-oxadiazol-2-one], the IC50 was 2 µM.
For `CCOc1nn(-c2ccc(OC3CC(C)(C)CC(C)(C)C3)cc2)c(=O)o1` [Example 16, 3-(4-(3,3,5,5-Tetramethylcyclohexyloxy)phenyl)-5-ethoxy-1,3,4-oxadiazol-2-one], the IC50 was 2 µM.
`O=c1oc(OCc2ccccc2)nn1-c1ccc(OC(F)(F)F)cc1` [Example 14, 3-(4-Trifluoromethoxyphenyl)-5-benzyloxy-1,3,4-oxad iazol-2-one] showed an IC50 of 50 µM.
For `CC(C)Oc1nn(-c2ccc(OC(F)(F)F)cc2)c(=O)o1` [Example 12, 3-(4-Trifluoromethoxyphenyl)-5-isopropoxy-1,3,4-oxadiazol-2-one], the IC50 was 10 µM.
For `COc1nn(-c2ccc(OC(F)(F)F)cc2)c(=O)o1` [Example 10, 3-(4-Trifluoromethoxyphenyl)-5-methoxy-1,3,4-oxad iazol-2-one], the IC50 was 6 µM.
`COc1nn(-c2cccc(Oc3ccccc3)c2)c(=O)o1` [Example 33, 3-(3-Phenoxyphenyl)-5-methoxy-1,3,4-oxadiazol-2-one] showed an IC50 of 4 µM.
For `COc1nn(-c2cccc(OC3CC(C)(C)CC(C)(C)C3)c2)c(=O)o1` [Example 38, 3-(3-(3,3,5,5-Tetramethylcyclohexyloxy)phenyl)-5-methoxy-1,3,4-oxadiazol-2-one], the IC50 was under 1 µM.
With `CCOc1nn(-c2cccc(OCc3ccccc3)c2)c(=O)o1` [Example 18, 3-(3-Benzyloxyphenyl)-5-ethoxy-1,3,4-oxadiazol-2-one] the IC50 was under 1 µM.
In the case of `CCOc1nn(-c2cccc(OC(F)(F)F)c2)c(=O)o1` [Example 19, 3-(3-Trifluoromethoxyphenyl)-5-ethoxy-1,3,4-oxadiazol-2-one], the IC50 is reported as 5 µM.
Work on `COc1nn(-c2ccc(S(=O)(=O)NC3CC(C)CC(C)(C)C3)cc2)c(=O)o1` (stereo not shown) [Example 15, 3-(4-(3,3,5-Trimethylcyclohexylaminosulfonyl)phenyl)-5-methoxy-1,3,4-oxadiazol-2-one] yielded an IC50 of 2 µM.
With `CCCCOc1nn(-c2ccc(OC(F)(F)F)cc2)c(=O)o1` [Example 13, 3-(4-Trifluoromethoxyphenyl)-5-butoxy-1,3,4-oxadiazol-2-one] the IC50 was 10 µM.
`COc1nn(-c2ccc(C3CCCCC3)cc2)c(=O)o1` [Example 37, 3-(4-Cyclohexylphenyl)-5-methoxy-1,3,4-oxadiazol-2-one] gave an IC50 of 3 µM.
In the case of `CCOc1nn(-c2cccc(Oc3ccccc3)c2)c(=O)o1` [Example 34, 3-(3-Phenoxyphenyl)-5-ethoxy-1,3,4-oxadiazol-2-one], the IC50 is reported as 3 µM.
`CC(C)Oc1nn(-c2cccc(Oc3ccccc3)c2)c(=O)o1` [Example 35, 3-(3-Phenoxyphenyl)-5-isopropoxy-1,3,4-oxadiazol-2-one] showed an IC50 of 3 µM.

Source: patent US6596742B1, “Substituted 3-phenyl-5-alkoxy-1,3,4-oxadiazol-2-ones, their preparation and their use in medicaments” (Aventis Pharma Deutschland GmbH, priority 1999, dated 2003)
